From patent US11540518B2, “Fungicidal oxadiazoles” (FMC Corporation, priority 2017, dated 2023)

Tests used:
Type in all cases: in vivo
[1] = system: Puccinia recondita f. sp. tritici; test: Test C: wheat leaf rust control on wheat seedlings; settings: sprayed to run-off on wheat seedlings, inoculated the following day, 100 = 100% disease control, 0 = no control
Text: General protocol for preparing test suspensions for Tests A-C: the test compounds were first dissolved in acetone in an amount equal to 3% of the final volume and then suspended at the desired concentration (in ppm) in acetone and purified water (50/50 mix by volume) containing 250 ppm of the surfactant PEG400 (polyhydric alcohol esters). The resulting test suspensions were then used in Tests A-C. The test solution was sprayed to the point of run-off on wheat seedlings. The following day the seedlings were inoculated with a spore suspension of Puccinia recondita f. sp. tritici (the causal agent of wheat leaf rust) and incubated in a saturated atmosphere at 20° C. for 24 h, and then moved to a growth chamber at 20° C. for 6 days, after which time disease ratings were made. Results for Tests A-C are given in Table A. In the Table, a rating of 100 indicates 100% disease control and a rating of 0 indicates no disease control (relative to the controls). A dash (-) indicates the compound was not tested.

Zymoseptoria tritici = test: Test B: wheat leaf blotch control on wheat seedlings; settings: sprayed to run-off on wheat seedlings, inoculated the following day, 100 = 100% disease control, 0 = no control
Text: General protocol for preparing test suspensions for Tests A-C: the test compounds were first dissolved in acetone in an amount equal to 3% of the final volume and then suspended at the desired concentration (in ppm) in acetone and purified water (50/50 mix by volume) containing 250 ppm of the surfactant PEG400 (polyhydric alcohol esters). The resulting test suspensions were then used in Tests A-C. The test solution was sprayed to the point of run-off on wheat seedlings. The following day the seedlings were inoculated with a spore suspension of Zymoseptoria tritici (the causal agent of wheat leaf blotch) and incubated in a saturated atmosphere at 24° C. for 48 h, and then moved to a growth chamber at 20° C. for 17 days, after which time disease ratings were made. Results for Tests A-C are given in Table A. In the Table, a rating of 100 indicates 100% disease control and a rating of 0 indicates no disease control (relative to the controls). A dash (-) indicates the compound was not tested.

Phakopsora pachyrhizi = test: Test A: Asian soybean rust control on soybean seedlings; settings: sprayed to run-off on soybean seedlings, inoculated the following day, 100 = 100% disease control, 0 = no control
Text: General protocol for preparing test suspensions for Tests A-C: the test compounds were first dissolved in acetone in an amount equal to 3% of the final volume and then suspended at the desired concentration (in ppm) in acetone and purified water (50/50 mix by volume) containing 250 ppm of the surfactant PEG400 (polyhydric alcohol esters). The resulting test suspensions were then used in Tests A-C.
The test solution was sprayed to the point of run-off on soybean seedlings. The following day the seedlings were inoculated with a spore suspension of Phakopsora pachyrhizi (the causal agent of Asian soybean rust) and incubated in a saturated atmosphere at 22° C. for 24 h, and then moved to a growth chamber at 22° C. for 8 days, after which time visual disease ratings were made.
Results for Tests A-C are given in Table A. In the Table, a rating of 100 indicates 100% disease control and a rating of 0 indicates no disease control (relative to the controls). A dash (-) indicates the compound was not tested.

[2] = 250 ppm (incl. values marked * = tested at 250 ppm)

CCNC(=O)OCC(OC)c1ccc(-c2noc(C(F)(F)F)n2)cc1 (racemic) [Compound 5]
Test C disease control rating ([1]; 260 ppm): 100%
Test B disease control rating (Zymoseptoria tritici; 260 ppm): 81%
Test A disease control rating (Phakopsora pachyrhizi; 260 ppm): 100%

CCC(C)NC(=O)OCc1ccc(-c2noc(C(F)(F)F)n2)cc1 (racemic) [Compound 14]
Test C disease control rating ([1]; 250 ppm): 100%
Test B disease control rating (Zymoseptoria tritici; [2]): 84%
Test A disease control rating (Phakopsora pachyrhizi; 250 ppm): 100%

O=C(Nc1ccccc1)OCc1ccc(-c2noc(C(F)(F)F)n2)cc1 [Compound 1]
Test C disease control rating ([1]; 270 ppm): 100%
Test B disease control rating (Zymoseptoria tritici; 270 ppm): 79%
Test A disease control rating (Phakopsora pachyrhizi; 270 ppm): 100%

CCNC(=O)OCc1ccc(-c2noc(C(F)(F)F)n2)cc1 [Compound 2]
Test C disease control rating ([1]; 260 ppm): 100%
Test B disease control rating (Zymoseptoria tritici; 260 ppm): 99%
Test A disease control rating (Phakopsora pachyrhizi; 260 ppm): 100%

CC(C)NC(=O)OCc1ccc(-c2noc(C(F)(F)F)n2)cc1 [Compound 3]
Test C disease control rating ([1]; 250 ppm): 100%
Test B disease control rating (Zymoseptoria tritici; [2]): 73%
Test A disease control rating (Phakopsora pachyrhizi; 250 ppm): 100%

CCOC(=O)CNC(=O)OCc1ccc(-c2noc(C(F)(F)F)n2)cc1 [Compound 4]
Test C disease control rating ([1]; 260 ppm): 100%
Test B disease control rating (Zymoseptoria tritici; 260 ppm): 46%
Test A disease control rating (Phakopsora pachyrhizi; 260 ppm): 100%

CC#CCNC(=O)OCCCc1ccc(-c2noc(C(F)(F)F)n2)cc1 [Compound 64]
Test C disease control rating ([1]; 50 ppm): 100%
Test A disease control rating (Phakopsora pachyrhizi; 50 ppm): 100%

C#CCCNC(=O)OCCCc1ccc(-c2noc(C(F)(F)F)n2)cc1 [Compound 65]
Test C disease control rating ([1]; 50 ppm): 100%
Test A disease control rating (Phakopsora pachyrhizi; 50 ppm): 100%

C#CCCNC(=O)OCCc1ccc(-c2noc(C(F)(F)F)n2)cc1 [Compound 66]
Test C disease control rating ([1]; 50 ppm): 100%
Test A disease control rating (Phakopsora pachyrhizi; 50 ppm): 100%

C#CCCNC(=O)OC(C)c1ccc(-c2noc(C(F)(F)F)n2)cc1 (stereo not shown) [Compound 67]
Test C disease control rating ([1]; 50 ppm): 100%
Test A disease control rating (Phakopsora pachyrhizi; 50 ppm): 100%

CCOC(=O)c1ccc(CNC(=O)OCCc2ccc(-c3noc(C(F)(F)F)n3)cc2)cc1 [Compound 68]
Test C disease control rating ([1]; 50 ppm): 0%
Test A disease control rating (Phakopsora pachyrhizi; 50 ppm): 99%

CCOC(=O)c1ccc(CNC(=O)OCCCc2ccc(-c3noc(C(F)(F)F)n3)cc2)cc1 [Compound 69]
Test C disease control rating ([1]; 50 ppm): 0%
Test A disease control rating (Phakopsora pachyrhizi; 50 ppm): 100%

CC(OC(=O)n1ccnc1)c1ccc(-c2noc(C(F)(F)F)n2)cc1 (stereo not shown) [Compound 70]
Test C disease control rating ([1]; 10 ppm): 68%
Test A disease control rating (Phakopsora pachyrhizi; 10 ppm): 99%

CNC(=O)OC(C)c1ccc(-c2noc(C(F)(F)F)n2)cc1 (stereo not shown) [Compound 71]
Test C disease control rating ([1]; 10 ppm): 83%
Test A disease control rating (Phakopsora pachyrhizi; 10 ppm): 100%

CCCNC(=O)OC(C)c1ccc(-c2noc(C(F)(F)F)n2)cc1 (stereo not shown) [Compound 73]
Test C disease control rating ([1]; 10 ppm): 68%
Test A disease control rating (Phakopsora pachyrhizi; 10 ppm): 100%

CCCNC(=O)OC(C)c1ccc(-c2noc(C(F)(F)F)n2)s1 (stereo not shown) [Compound 74]
Test C disease control rating ([1]; 10 ppm): 98%
Test A disease control rating (Phakopsora pachyrhizi; 10 ppm): 100%

NC(=O)OCc1ccc(-c2noc(C(F)(F)F)n2)o1 [Compound 80]
Test C disease control rating ([1]; 10 ppm): 0%
Test A disease control rating (Phakopsora pachyrhizi; 10 ppm): 0%

C#CCNC(=O)OCc1ccc(-c2noc(C(F)(F)F)n2)o1 [Compound 81]
Test C disease control rating ([1]; 10 ppm): 45%
Test A disease control rating (Phakopsora pachyrhizi; 10 ppm): 0%

O=C(OCc1ccc(-c2noc(C(F)(F)F)n2)o1)n1ccnc1 [Compound 82]
pest or weed control at 50 ppm ([1]; Puccinia recondita, 168 h, 50 ppm, read-out: Test C disease control rating): 0%
pest or weed control at 50 ppm (Phakopsora pachyrhizi; Phakopsora pachyrhizi, 216 h, 50 ppm, read-out: Test A disease control rating): 89%

COc1ccc(C(OC(=O)n2ccnc2)c2ccc(-c3noc(C(F)(F)F)n3)cc2)cc1 (stereo not shown) [Compound 83]
Test C disease control rating ([1]; 50 ppm): 100%
Test A disease control rating (Phakopsora pachyrhizi; 50 ppm): 100%

CC(OC(N)=O)c1ccc(-c2noc(C(F)(F)F)n2)cc1 (stereo not shown) [Compound 84]
Test C disease control rating ([1]; 10 ppm): 100%
Test A disease control rating (Phakopsora pachyrhizi; 10 ppm): 100%

CC(C)(C)OC(=O)NN=Cc1ccc(-c2noc(C(F)(F)F)n2)cc1 [Compound 106]
Test C disease control rating ([1]; 10 ppm): 68%
Test A disease control rating (Phakopsora pachyrhizi; 10 ppm): 97%

CCOC(=O)NN=Cc1ccc(-c2noc(C(F)(F)F)n2)cc1 [Compound 107]
Test C disease control rating ([1]; 10 ppm): 99%
Test A disease control rating (Phakopsora pachyrhizi; 10 ppm): 100%

COC(=O)NN=C(C)c1ccc(-c2noc(C(F)(F)F)n2)cc1 [Compound 108]
Test C disease control rating ([1]; 10 ppm): 89%
Test A disease control rating (Phakopsora pachyrhizi; 10 ppm): 92%

CN(N=Cc1ccc(-c2noc(C(F)(F)F)n2)cc1)C(=O)OC(C)(C)C [Compound 109]
Test C disease control rating ([1]; 50 ppm): 95%
Test A disease control rating (Phakopsora pachyrhizi; 50 ppm): 100%

CCNC(=O)OC(c1ccccc1)c1ccc(-c2noc(C(F)(F)F)n2)cc1 (stereo not shown) [Compound 110]
Test C disease control rating ([1]; 250 ppm): 100%
Test A disease control rating (Phakopsora pachyrhizi; 250 ppm): 100%

O=C(OC(c1ccccc1)c1ccc(-c2noc(C(F)(F)F)n2)cc1)n1ccnc1 (stereo not shown) [Compound 111]
Test C disease control rating ([1]; 250 ppm): 100%
Test A disease control rating (Phakopsora pachyrhizi; 250 ppm): 100%

NC(=O)OC(c1ccccc1)c1ccc(-c2noc(C(F)(F)F)n2)cc1 (stereo not shown) [Compound 117]
Test C disease control rating ([1]; 250 ppm): 100%
Test A disease control rating (Phakopsora pachyrhizi; 250 ppm): 100%

C#CCNC(=O)OC(c1ccccc1)c1ccc(-c2noc(C(F)(F)F)n2)cc1 (stereo not shown) [Compound 118]
Test C disease control rating ([1]; 250 ppm): 100%
Test A disease control rating (Phakopsora pachyrhizi; 250 ppm): 100%

COC(=O)c1ccc(CNC(=O)OC(c2ccccc2)c2ccc(-c3noc(C(F)(F)F)n3)cc2)cc1 (stereo not shown) [Compound 119]
Test C disease control rating ([1]; 250 ppm): 74%
Test A disease control rating (Phakopsora pachyrhizi; 250 ppm): 100%

C#CCCNC(=O)OC(c1ccccc1)c1ccc(-c2noc(C(F)(F)F)n2)cc1 (stereo not shown) [Compound 120]
Test C disease control rating ([1]; 250 ppm): 100%
Test A disease control rating (Phakopsora pachyrhizi; 250 ppm): 100%

CN(C)C(=O)OC(c1ccccc1)c1ccc(-c2noc(C(F)(F)F)n2)cc1 (stereo not shown) [Compound 121]
Test C disease control rating ([1]; 250 ppm): 99%
Test A disease control rating (Phakopsora pachyrhizi; 250 ppm): 100%

COCCNC(=O)OC(c1ccccc1)c1ccc(-c2noc(C(F)(F)F)n2)cc1 (stereo not shown) [Compound 122]
Test C disease control rating ([1]; 10 ppm): 89%
Test A disease control rating (Phakopsora pachyrhizi; 10 ppm): 100%

CONC(=O)OCc1ccc(-c2noc(C(F)(F)F)n2)cc1 [Compound 136]
Test C disease control rating ([1]; 10 ppm): 0%
Test A disease control rating (Phakopsora pachyrhizi; 10 ppm): 79%

Cc1ccccc1C(OC(=O)n1ccnc1)c1ccc(-c2noc(C(F)(F)F)n2)cc1 (stereo not shown) [Compound 142]
Test C disease control rating ([1]; 10 ppm): 0%
Test A disease control rating (Phakopsora pachyrhizi; 10 ppm): 98%
